What all share (format): functional
Conditions in all cases: time 18-24 hrs

Assay [1] concerns Staphylococcus aureus. As to the kind of experiment: Antibacterial activity against Staphylococcus aureus ATCC 25923 assessed as bacterial growth inhibition incubated for 18 to 24 hrs by microtiter dilution method.
Assay [2] deals with Staphylococcus aureus. The assay is described as follows: Antibacterial activity against methicillin-resistant Staphylococcus aureus BNCC 337371 assessed as bacterial growth inhibition incubated for 18 to 24 hrs by microtiter dilution method.
In the next assay the test system is Enterococcus faecalis. As to the kind of experiment: Antibacterial activity against Enterococcus faecalis assessed as bacterial growth inhibition incubated for 18 to 24 hrs by microtiter dilution method.
A further assay relates to Bacillus subtilis. As to the kind of experiment: Antibacterial activity against Bacillus subtilis assessed as bacterial growth inhibition incubated for 18 to 24 hrs by microtiter dilution method.
The subject of the next assay is Escherichia coli. The assay is described as follows: Antibacterial activity against Escherichia coli CICC 10389 assessed as bacterial growth inhibition incubated for 18 to 24 hrs by microtiter dilution method.
The subject of assay [3] is Staphylococcus epidermidis. The assay is described as follows: Antibacterial activity against methicillin-resistant Staphylococcus epidermidis ATCC 51625 assessed as bacterial growth inhibition incubated for 18 to 24 hrs by microtiter dilution method.

Converted amounts (≈) assume the structure as drawn.

One may read the MIC as the lowest concentration found to suppress growth.

In the case of `C=CCOC(=O)c1c(C)nc(SCC(=O)O[C@@H]2C[C@@](C)(C=C)[C@@H](O)[C@H](C)[C@]34CCC(=O)[C@H]3[C@@]2(C)[C@H](C)CC4)nc1C`, the MIC in the assay on Staphylococcus aureus [1] was 0.125 µg/mL (≈ 0.214 µM); in the assay on Staphylococcus aureus [2], 1 µg/mL (≈ 1.71 µM); in the assay on Enterococcus faecalis, over 16 µg/mL; in the assay with Bacillus subtilis it was 4 µg/mL (≈ 6.84 µM); in the assay with Escherichia coli, over 16 µg/mL; in assay [3] it was 0.25 µg/mL (≈ 0.428 µM).
As to `C=C[C@]1(C)C[C@@H](OC(=O)CSC2=NC(C)=C(C(=O)OCC)C(C)N2)[C@]2(C)[C@H](C)CC[C@]3(CCC(=O)[C@H]32)[C@@H](C)[C@@H]1O` (stereo partly drawn), the MIC with Staphylococcus aureus [1] was 0.0625 µg/mL (≈ 0.109 µM); with Staphylococcus aureus [2], 0.125 µg/mL (≈ 0.217 µM); in the assay with Enterococcus faecalis, over 16 µg/mL; with Bacillus subtilis, over 16 µg/mL; with Escherichia coli, over 16 µg/mL; in assay [3], 0.0625 µg/mL (≈ 0.109 µM).
Turning to `C=C[C@]1(C)C[C@@H](OC(=O)CSC2=NC(CCCC)=C(C(=O)OC)C(C)N2)[C@]2(C)[C@H](C)CC[C@]3(CCC(=O)[C@H]32)[C@@H](C)[C@@H]1O` (stereo partly drawn), the MIC is 1 µg/mL (≈ 1.66 µM) in the assay with Staphylococcus aureus [1]; 1 µg/mL (≈ 1.66 µM) with Staphylococcus aureus [2]; over 16 µg/mL in the assay with Enterococcus faecalis; over 16 µg/mL in the assay on Bacillus subtilis; over 16 µg/mL with Escherichia coli; 1 µg/mL (≈ 1.66 µM) in assay [3].
For the compound `C=C[C@]1(C)C[C@@H](OC(=O)CSc2nc(C)c(C(=O)OC(C)CC)c(C)n2)[C@]2(C)[C@H](C)CC[C@]3(CCC(=O)[C@H]32)[C@@H](C)[C@@H]1O` (stereo partly drawn), the MIC with Staphylococcus aureus [1] was 0.5 µg/mL (≈ 0.832 µM); with Staphylococcus aureus [2], 0.5 µg/mL (≈ 0.832 µM); with Enterococcus faecalis, over 16 µg/mL; with Bacillus subtilis, over 16 µg/mL; in the assay with Escherichia coli, over 16 µg/mL; in assay [3] it was 0.5 µg/mL (≈ 0.832 µM).
For `C=C[C@]1(C)C[C@@H](OC(=O)CSc2nc(C)c(C(=O)OCCC)c(C)n2)[C@]2(C)[C@H](C)CC[C@]3(CCC(=O)[C@H]32)[C@@H](C)[C@@H]1O`, the MIC was 0.25 µg/mL (≈ 0.426 µM) in the assay with Staphylococcus aureus [1]; 0.125 µg/mL (≈ 0.213 µM) in the assay with Staphylococcus aureus [2]; over 16 µg/mL in the assay with Enterococcus faecalis; 4 µg/mL (≈ 6.82 µM) in the assay on Bacillus subtilis; over 16 µg/mL in the assay with Escherichia coli; 0.125 µg/mL (≈ 0.213 µM) in assay [3].
On to `C=C[C@]1(C)C[C@@H](OC(=O)CSC2=NC(CC(C)C)=C(C(=O)OC)C(C)N2)[C@]2(C)[C@H](C)CC[C@]3(CCC(=O)[C@H]32)[C@@H](C)[C@@H]1O` (stereo partly drawn), for which the minimum inhibitory concentration (MIC) with Staphylococcus aureus [1] was 1 µg/mL (≈ 1.66 µM); with Staphylococcus aureus [2], 0.5 µg/mL (≈ 0.829 µM); in the assay with Enterococcus faecalis, over 16 µg/mL; in the assay with Bacillus subtilis, over 16 µg/mL; in the assay on Escherichia coli, over 16 µg/mL; in assay [3] it was 0.5 µg/mL (≈ 0.829 µM).
With `C=CCOC(=O)C1=C(C)N=C(SCC(=O)O[C@@H]2C[C@@](C)(C=C)[C@@H](O)[C@H](C)[C@]34CCC(=O)[C@H]3[C@@]2(C)[C@H](C)CC4)NC1C` (stereo partly drawn), the MIC in the assay with Staphylococcus aureus [1] was 0.25 µg/mL (≈ 0.426 µM); in the assay on Staphylococcus aureus [2] it was 0.25 µg/mL (≈ 0.426 µM); in the assay on Enterococcus faecalis, over 16 µg/mL; with Bacillus subtilis, over 16 µg/mL; in the assay with Escherichia coli it was over 16 µg/mL; in assay [3], 0.5 µg/mL (≈ 0.852 µM).
As to `C=C[C@]1(C)C[C@@H](OC(=O)CSC2=NC(CCC)=C(C(=O)OC)C(C)N2)[C@]2(C)[C@H](C)CC[C@]3(CCC(=O)[C@H]32)[C@@H](C)[C@@H]1O` (stereo partly drawn), the MIC in the assay on Staphylococcus aureus [1] is 4 µg/mL (≈ 6.79 µM); in the assay on Staphylococcus aureus [2] it was 8 µg/mL (≈ 13.6 µM); with Enterococcus faecalis it was over 16 µg/mL; with Bacillus subtilis it was 16 µg/mL (≈ 27.2 µM); in the assay with Escherichia coli it was over 16 µg/mL; in assay [3] it was 4 µg/mL (≈ 6.79 µM).
`C=C[C@]1(C)C[C@@H](OC(=O)CSc2nc(C)c(C(=O)OC)c(C(CC)CC)n2)[C@]2(C)[C@H](C)CC[C@]3(CCC(=O)[C@H]32)[C@@H](C)[C@@H]1O`: the MIC with Staphylococcus aureus [1] was 0.25 µg/mL (≈ 0.407 µM); in the assay with Staphylococcus aureus [2], 0.25 µg/mL (≈ 0.407 µM); in the assay on Enterococcus faecalis, over 16 µg/mL; in the assay with Bacillus subtilis, over 16 µg/mL; in the assay with Escherichia coli, over 16 µg/mL; in assay [3], 0.5 µg/mL (≈ 0.813 µM).
As to `C=C[C@]1(C)C[C@@H](OC(=O)CSC2=NC(C(CC)CC)=C(C(=O)OC)C(C)N2)[C@]2(C)[C@H](C)CC[C@]3(CCC(=O)[C@H]32)[C@@H](C)[C@@H]1O` (stereo partly drawn), the MIC in the assay with Staphylococcus aureus [1] is 0.5 µg/mL (≈ 0.811 µM); with Staphylococcus aureus [2] it was 0.25 µg/mL (≈ 0.405 µM); in the assay with Enterococcus faecalis it was over 16 µg/mL; in the assay with Bacillus subtilis, over 16 µg/mL; in the assay on Escherichia coli, over 16 µg/mL; in assay [3] it was 0.25 µg/mL (≈ 0.405 µM).
With `C=C[C@]1(C)C[C@@H](OC(=O)CSC2=NC(C)=C(C(=O)OCCC)C(C)N2)[C@]2(C)[C@H](C)CC[C@]3(CCC(=O)[C@H]32)[C@@H](C)[C@@H]1O` (stereo partly drawn), the MIC in the assay on Staphylococcus aureus [1] is 0.25 µg/mL (≈ 0.425 µM); in the assay with Staphylococcus aureus [2] it was 0.5 µg/mL (≈ 0.849 µM); in the assay with Enterococcus faecalis it was over 16 µg/mL; with Bacillus subtilis, over 16 µg/mL; in the assay with Escherichia coli it was over 16 µg/mL; in assay [3], 0.5 µg/mL (≈ 0.849 µM).
Turning to `C=C[C@]1(C)C[C@@H](OC(=O)CSC2=NC(C)=C(C(=O)OC(C)CC)C(C)N2)[C@]2(C)[C@H](C)CC[C@]3(CCC(=O)[C@H]32)[C@@H](C)[C@@H]1O` (stereo partly drawn), the MIC in the assay on Staphylococcus aureus [1] was 0.5 µg/mL (≈ 0.829 µM); in the assay on Staphylococcus aureus [2] it was 0.5 µg/mL (≈ 0.829 µM); in the assay on Enterococcus faecalis, over 16 µg/mL; in the assay with Bacillus subtilis, over 16 µg/mL; in the assay on Escherichia coli it was over 16 µg/mL; in assay [3], 1 µg/mL (≈ 1.66 µM).
Take `C=C[C@]1(C)C[C@@H](OC(=O)CSC2=NC(C)=C(C(=O)OC)C(C)N2)[C@]2(C)[C@H](C)CC[C@]3(CCC(=O)[C@H]32)[C@@H](C)[C@@H]1O` (stereo partly drawn): the MIC with Staphylococcus aureus [1] was 0.25 µg/mL (≈ 0.446 µM); with Staphylococcus aureus [2], 0.25 µg/mL (≈ 0.446 µM); in the assay with Enterococcus faecalis, over 16 µg/mL; in the assay with Bacillus subtilis, 8 µg/mL (≈ 14.3 µM); in the assay with Escherichia coli, over 16 µg/mL; in assay [3] it was 0.125 µg/mL (≈ 0.223 µM).
On to `C=C[C@]1(C)C[C@@H](OC(=O)CSc2nc(C)c(C(=O)OC)c(CC)n2)[C@]2(C)[C@H](C)CC[C@]3(CCC(=O)[C@H]32)[C@@H](C)[C@@H]1O`, for which the MIC is 0.0313 µg/mL (≈ 0.0546 µM) in the assay with Staphylococcus aureus [1]; 0.0625 µg/mL (≈ 0.109 µM) in the assay on Staphylococcus aureus [2]; over 16 µg/mL in the assay with Enterococcus faecalis; 4 µg/mL (≈ 6.98 µM) with Bacillus subtilis; over 16 µg/mL in the assay on Escherichia coli; 0.0625 µg/mL (≈ 0.109 µM) in assay [3].
Turning to `C=C[C@]1(C)C[C@@H](OC(=O)CSc2nc(C)c(C(=O)OC)c(CC(C)C)n2)[C@]2(C)[C@H](C)CC[C@]3(CCC(=O)[C@H]32)[C@@H](C)[C@@H]1O`, the MIC in the assay on Staphylococcus aureus [1] is 0.25 µg/mL (≈ 0.416 µM); with Staphylococcus aureus [2], 0.25 µg/mL (≈ 0.416 µM); in the assay on Enterococcus faecalis, over 16 µg/mL; in the assay on Bacillus subtilis it was over 16 µg/mL; in the assay with Escherichia coli it was over 16 µg/mL; in assay [3], 0.5 µg/mL (≈ 0.832 µM).
For `C=C[C@]1(C)C[C@@H](OC(=O)CSC2=NC(C)=C(C(C)=O)C(C)N2)[C@]2(C)[C@H](C)CC[C@]3(CCC(=O)[C@H]32)[C@@H](C)[C@@H]1O` (stereo partly drawn), the MIC with Staphylococcus aureus [1] was 0.125 µg/mL (≈ 0.229 µM); in the assay on Staphylococcus aureus [2], 0.25 µg/mL (≈ 0.459 µM); with Enterococcus faecalis, over 16 µg/mL; in the assay on Bacillus subtilis, over 16 µg/mL; with Escherichia coli, over 16 µg/mL; in assay [3], 0.25 µg/mL (≈ 0.459 µM).
On to `C=C[C@]1(C)C[C@@H](OC(=O)CSc2nc(C)c(C(=O)OC)c(CCC)n2)[C@]2(C)[C@H](C)CC[C@]3(CCC(=O)[C@H]32)[C@@H](C)[C@@H]1O`, for which the MIC in the assay on Staphylococcus aureus [1] was 0.25 µg/mL (≈ 0.426 µM); in the assay on Staphylococcus aureus [2], 0.125 µg/mL (≈ 0.213 µM); with Enterococcus faecalis it was over 16 µg/mL; in the assay with Bacillus subtilis, 16 µg/mL (≈ 27.3 µM); in the assay on Escherichia coli, over 16 µg/mL; in assay [3], 0.0625 µg/mL (≈ 0.107 µM).
Take `C=C[C@]1(C)C[C@@H](OC(=O)CSc2nc(C)c(C(=O)OC)c(CCCC)n2)[C@]2(C)[C@H](C)CC[C@]3(CCC(=O)[C@H]32)[C@@H](C)[C@@H]1O`: the MIC is 2 µg/mL (≈ 3.33 µM) in the assay on Staphylococcus aureus [1]; 4 µg/mL (≈ 6.66 µM) in the assay with Staphylococcus aureus [2]; over 16 µg/mL with Enterococcus faecalis; over 16 µg/mL in the assay with Bacillus subtilis; over 16 µg/mL in the assay with Escherichia coli; 0.5 µg/mL (≈ 0.832 µM) in assay [3].

(Values after ChEMBL document CHEMBL5120841, “Discovery of novel pleuromutilin derivatives as potent antibacterial agents” (2022).)
